Laboratory results published in patent US11498928B2, “Macrocyclic spiroethers as Mcl-1 inhibitors” (ASCENTAGE PHARMA (SUZHOU) CO., LTD., priority 2019, dated 2022).
Read-outs that look alike come from different tables or passages of the source.

What was measured:
[1] = system: NCI-H929 cells; assay: Cell viability assay (NCI-H929 cells), CCK-8; type: cell-based; conditions: Homo sapiens, NCI-H929, 24 h, 5% FBS
Description: NCI-H929 cells were obtained from American Type Culture Collection (ATCC). Cells were maintained in the recommended culture medium (RPMI 1640) with 10% FBS and 0.05 mM BME at 37° C. and an atmosphere of 5% CO2.
The effect of Compounds on cell viability was determined using Cell Counting Kit-8 (CCK-8) assay according to the manufacturer's instructions. 95 μL of NCI-H929 cell suspension (20000 cells/well) in culture medium were seeded into 96-well plates and cultured 4 hrs. Each tested compound was serially diluted in DMSO, then 5 μL of the compound or DMSO was diluted in 95 μL medium once more. At last, 5 μL of the compound dilution was added to the corresponding well of the cell plate. After the addition of the tested compound, the cells were incubated at 37° C. in an atmosphere of 5% CO2 for 24 hrs. At the end, 10 μL of CCK-8 solution was added to each well of the plate and incubated for 1-4 hours. The plates were read at 450 nm on the microplate reader (BioTek Synergy 1MF). The readings were normalized to the vehicle cells, and the IC50 was calculated by nonlinear regression analysis using GraphPad Prism 6 software. Cell Viability Assay (OPM-2 cells)

[2] = system: OPM-2 cells; assay: Cell viability assay (OPM-2 cells), CCK-8; type: cell-based; conditions: Homo sapiens, OPM-2, 24 h, 5% FBS
Description: OPM-2 cells were obtained from Deutsche Sammlung von Mikroorganismen and Zellkulturen GmbH (DSMZ). Cells were maintained in the recommended culture medium with 10% FBS at 37° C. and an atmosphere of 5% CO2.
The effect of representative Compounds of the Disclosure on cell viability was determined using Cell Counting Kit-8 (CCK-8) assay (Shanghai Life iLab Bio Technology) according to the manufacturer's instructions. Each tested compound was serially diluted in culture medium, 100 μL of the compound dilution was added into 96-well plates. 100 μL of an OPM-2 cell suspension (20000 cells/well) in culture medium were seeded into the corresponding well of the plate and the cells were incubated at 37° C. in an atmosphere of 5% CO2 for 24 hours. In the next day, 20 μL of CCK-8 solution was added to each well of the plate and incubated for 4 hours.
The plates were read at 450 nm on the microplate spectrophotometer (SpectraMax plus 384, Molecular devices). The readings were normalized to the vehicle cells, and the IC50 was calculated by nonlinear regression analysis using GraphPad Prism 6 software.

[3] = target: T1, Mcl-1 protein (residues 171-323) (Homo sapiens, UniProt Q07820); assay: Inhibition of Mcl-1 by fluorescence polarization (FP) competitive binding assay with FAM-Bid tracer; conditions: 2 nM FAM-Bid, 20 nM Mcl-1, 30 min
T1 construct: Tag-free Mcl-1 protein (residues 171-323) was used in the FP assay
Description: Inhibition of Mcl-1 by Fluorescence Polarization (FP) Assay.
The relative binding potency of representative Compounds of the Disclosure was determined by a fluorescence polarization (FP) assay (Long et al, BMC Biotechnology 13:45 (2013)). The method used a fluorescein labelled peptide (FAM-Bid) which binds to the Mcl-1 protein leading to an increased anisotropy measured in milli-polarization (mP) values using a plate reader. […] Tag-free Mcl-1 protein (residues 171-323) was used in the FP assay (Mady et al, Scientific Reports 8: 10210-10210 (2018); Yang et al, ACS Med. Chem. Lett. 3:308-312 (2012)).
A 10-points serial dilution of each compound was prepared in DMSO and 5 μL solution was transferred into flat bottomed, 96-well back plate (final DMSO concentration 5%). 120 μL of Buffer (PBS, 0.01% BGG (Sigma Cat. #SRE0011), 0.01% Triton X-100), containing the Fluorescein labelled peptide (Final concentration 2 nM) and Mcl-1 protein (final concentration 20 nM) was then added. Assay plates were incubated 30 mins at room temperature with gentle shaking before FP was measured on a Biotek Synergy 1MF reader (Ex. 485 nm, Em. 528 nm, Cut off 510 nm) and mP calculated. The binding of increasing doses of test compounds was expressed as a percentage reduction in mP compared to a window established between 5% DMSO only and 100% inhibition controls (no Mcl-1 protein). 10-points dose response curves were plotted with GraphPad software using Sigmoidal Dose-Response Model and the IC50 values were determined by nonlinear regression fitting of the competition curves. Cell Viability Assay (NCI-H929 cells)

[4] = Pharmacokinetic studies in mice (IV and PO); type: in vivo; conditions: for MRT last: read-out: MRT0-last
Description: Administration: Mice in the IV group was dosed at 2 mg/kg (20% PEG 400+10% Cremophor EL+70% PBS 7.4) via tail vein injection (N=9). Mice in the PO group was dosed at 10 mg/kg (20% PEG 400+10% Cremophor EL+70% PBS 7.4) via oral gavage (N=9). All the mice were fasted overnight before dosing and had free access to food 4 hr post dosing.
Sampling: The animal was restrained manually at the designated time points (0.083, 0.25, 0.5, 1, 2, 4, 6, 8 and 24 hr), approximately 110 μL of blood sample was collected via retro-orbital puncture or cardiac puncture for terminal bleeding under the anesthesia with Isoflurane inhalation into K2EDTA tubes. The blood samples were maintained in wet ice first and centrifuged to obtain plasma (2000 g, 4° C., 5 min) within 15 minutes post sampling. All the plasma samples were stored at approximately −70° C. until analysis.

T1 sequence (Q07820 171-323): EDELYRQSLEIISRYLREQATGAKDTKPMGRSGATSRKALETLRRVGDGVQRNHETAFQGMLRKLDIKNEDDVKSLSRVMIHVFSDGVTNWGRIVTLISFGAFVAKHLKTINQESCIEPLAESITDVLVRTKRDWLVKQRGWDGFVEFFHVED

Structure (SMILES) | IC50 [1] [nM] | IC50 [2] [nM] | IC50 [3] [nM] | further results
C[C@@H]1[C@@H](C)S(=O)(=O)NC(=O)c2ccc3c(c2)N(C[C@@H]2CC[C@H]2[C@@H](OCCN2C[C@@H](C)N[C@@H](C)C2)C2=C[C@H]1C2)C[C@@]1(CCCc2c1ccc(Cl)c2F)CO3 [compound 83, (1S,11′R,12′S,13′R,16′R,16a′R,18a′R,E)-6-chloro-16′-(2-((3 S,5R)-3,5-dimethylpiperazin-1-yl)ethoxy)-5-fluoro-11′,12′-dimethyl-3,4,12,′13′,16′,16a′,17′,18′,18a′,19′-decahydro-1′H,2H,3′H,11′H-spiro[naphthalene-1,2′-[5,7]etheno[13,15]methanocyclobuta[i][1,4]oxazepino[3,4-f][1]thia[2,7]diazacyclohexadecin]-8′(9′H)-one 10′,10′-dioxide] | 220 | 164 | 25 | 
CO[C@@]1(CN2CCN(C3CCOCC3)CC2)C2=C[C@@H](C2)[C@H](C)[C@@H](C)S(=O)(=O)NC(=O)c2ccc3c(c2)N(C[C@@H]2CC[C@H]21)C[C@@]1(CCCc2c1ccc(Cl)c2F)CO3 [compound 36] | 4.4 | 35 | 13 | 
COCCO[C@H]1C2=C[C@@H](C2)[C@H](C)[C@@H](C)S(=O)(=O)NC(=O)c2ccc3c(c2)N(C[C@@H]2CC[C@H]21)C[C@@]1(CCCc2c1ccc(Cl)c2F)CO3 [compound 60, (1S,11′R,12′S,13′R,16′R,16a′R,18a′R,E)-6-chloro-5-fluoro-16′-(2-methoxyethoxy)-11′,12′-dimethyl-3,4,12′,13′,16′,16a′,17′,18′,18a′,19′-decahydro-1′H,2H,3′H,11′H-spiro[naphthalene-1,2′-[5,7]etheno[13,15]methanocyclobuta[i][1,4]oxazepino[3,4-f][1]thia[2,7]diazacyclohexadecin]-8′(9′H)-one 10′,10′-dioxide] | 19 | 66 | 15 | 
CO[C@@]1(CN2CCN(C)C(=O)C2)C2=C[C@@H](C2)[C@H](C)[C@@H](C)S(=O)(=O)NC(=O)c2ccc3c(c2)N(C[C@@H]2CC[C@H]21)C[C@@]1(CCCc2c1ccc(Cl)c2F)CO3 [compound 39, (1S,11′R,12′S,13′R,16′R,16a′R,18a′R,E)-6-chloro-5-fluoro-16′-methoxy-11′,12′-dimethyl-16′-((4-methyl-3-oxopiperazin-1-yl)methyl)-3,4,12′,13′,16′,16a′,17′,18′,18a′,19′-decahydro-1′H,2H,3′H, 11′H-spiro[naphthalene-1,2′-[5,7]etheno[13,15]methanocyclobuta[i][1,4]oxazepino[3,4-f][1]thia[2,7]diazacyclohexadecin]-8′(9′H)-one 10′,10′-dioxide] | 7.7 | 62 | 14 | 
CO[C@H]1C2CC(CCS(=O)(=O)NC(=O)c3ccc4c(c3)N(C[C@@H]3CC[C@H]31)C[C@@]1(CCCc3cc(Cl)ccc31)CO4)C2 [compound 2] | 6.04 | 10 |  | 
CO[C@H]1/C=C/C[C@H](C)[C@@H](C)S(=O)(=O)NC(=O)c2ccc3c(c2)N(C[C@@H]2CC[C@H]21)C[C@@]1(CCCc2cc(Cl)ccc21)CO3 [AMG-176, reference compound] | 138 | 335 |  | F ([4]; PO 10 mg/kg vs IV 2 mg/kg): 97.9%; AUC(0-inf) ([4]; mouse, plasma, IV 2 mg/kg): 7450 ng·h/mL; AUC(0-t) ([4]; mouse, plasma, IV 2 mg/kg): 6800 ng·h/mL; clearance ([4]; mouse, plasma, IV 2 mg/kg): 4.5 mL/min/kg; half-life ([4]; mouse, plasma, IV 2 mg/kg): 7.2 h; Cmax ([4]; mouse, plasma, IV 2 mg/kg, read-out: C0/Cmax (C0)): 1550 ng/mL; MRT last ([4]; mouse, plasma, IV 2 mg/kg): 6.3 h; Vd ([4]; mouse, plasma, IV 2 mg/kg, read-out: Vss): 2.3 L/kg; AUC(0-inf) ([4]; mouse, plasma, PO 10 mg/kg): 36500 ng·h/mL; AUC(0-t) ([4]; mouse, plasma, PO 10 mg/kg): 32700 ng·h/mL; Tmax ([4]; mouse, plasma, PO 10 mg/kg): 1 h; half-life ([4]; mouse, plasma, PO 10 mg/kg): 7.4 h; Cmax ([4]; mouse, plasma, PO 10 mg/kg, read-out: C0/Cmax (Cmax)): 2500 ng/mL; MRT last ([4]; mouse, plasma, PO 10 mg/kg): 7.4 h; Vd/F ([4]; mouse, plasma, PO 10 mg/kg, read-out: Vz/F): 2.9 L/kg
